Experimental data taken from patent US6737383B1, “Herbicidal oxadiazolidines” (priority 1999, dated 2004).

What was measured:
purple nutsedge = experiment: Test B pre/postemergence purple nutsedge; type: in vivo, Cyperus rotundus
How it was run: (§1)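 Response is a visual 0-to-10 score relative to untreated plants, where 0 means no effect and 10 means complete control, taken twelve to sixteen days after application. Treatments went onto soil at planting and onto foliage of 1- to 4-leaf plants, using a surfactant-containing non-phytotoxic solvent.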

rice = experiment: Test B flood test rice; type: in vivo, Oryza sativa
How it was run: (§2)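 Each value is a visual injury score relative to controls, with 10 meaning complete control and 0 no effect. Evaluation took place twelve to sixteen days after the 2-leaf-stage plants were treated and kept in the greenhouse.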

blackgrass = experiment: Test B pre/postemergence blackgrass; type: in vivo, Alopecurus myosuroides
How it was run: as §1

wheat = experiment: Test B pre/postemergence wheat; type: in vivo, Triticum aestivum
How it was run: as §1

morningglory = experiment: Test B pre/postemergence morningglory; type: in vivo, Ipomoea hederacea
How it was run: as §1

surinam grass = experiment: Test B pre/postemergence surinam grass; type: in vivo, Brachiaria decumbens
How it was run: as §1

rape = experiment: Test B pre/postemergence rape; type: in vivo, Brassica napus
How it was run: as §1

giant foxtail = experiment: Test B pre/postemergence giant foxtail; type: in vivo, Setaria faberii
How it was run: as §1

wild oat = experiment: Test B pre/postemergence wild oat; type: in vivo, Avena fatua
How it was run: as §1

soybean = experiment: Test B pre/postemergence soybean; type: in vivo, Glycine max
How it was run: as §1

bedstraw = experiment: Test B pre/postemergence bedstraw; type: in vivo, Galium aparine
How it was run: as §1

velvetleaf = experiment: Test B pre/postemergence velvetleaf; type: in vivo, Abutilon theophrasti
How it was run: as §1

corn = experiment: Test B pre/postemergence corn; type: in vivo, Zea mays
How it was run: as §1

pigweed = experiment: Test B pre/postemergence pigweed; type: in vivo, Amaranthus retroflexus
How it was run: as §1

duck salad = experiment: Test B flood test duck salad; type: in vivo, Heteranthera limosa
How it was run: as §2

crabgrass = experiment: Test B pre/postemergence crabgrass; type: in vivo, Digitaria sanguinalis
How it was run: as §1

[1] = Postemergence, Rate 125 g/ha, scale of 0 to 10 where 0 is no effect and 10 is complete control
[2] = Preemergence, Rate 62 g/ha, scale 0 to 10 (0 no effect, 10 complete control)
[3] = Preemergence, Rate 125 g/ha, 0 is no effect, 10 is complete control
[4] = Preemergence, Rate 250 g/ha, scale 0 to 10, 0 is no effect, 10 is complete control
[5] = Preemergence, Rate 500 g/ha, scale 0 to 10 (0 no effect, 10 complete control)
[6] = Rate 62 g/ha, Postemergence, scale of 0 to 10 where 0 is no effect and 10 is complete control
[7] = Rate 250 g/ha, Postemergence, scale 0 to 10, 0 is no effect, 10 is complete control
[8] = Rate 500 g/ha, Postemergence, scale 0 to 10
[9] = Postemergence (flood test species), Rate 125 g/ha, scale of 0 to 10 where 0 is no effect and 10 is complete control
[10] = Rate 62 g/ha, Postemergence section, flood test species, scale of 0 to 10 where 0 is no effect and 10 is complete control
[11] = Rate 250 g/ha, Postemergence (flood test), scale 0 to 10, 0 is no effect, 10 is complete control
[12] = Rate 250 g/ha, Pre-emergence, flood-test species, scale 0 to 10, 0 is no effect, 10 is complete control
[13] = Rate 500 g/ha, headed Pre-emergence (flood test species), scale 0 to 10 (0 no effect, 10 complete control)
[14] = Rate 500 g/ha, listed under Postemergence (flood test species), scale 0 to 10
[15] = Rate 1000 g/ha, Pre-emergence (as headed), scale 0 to 10
[16] = Rate 2000 g/ha, Pre-emergence (as headed), scale 0 to 10

SMILES: C=CCn1c(=O)on(C(=O)N(c2ccc(F)cc2)C2CC2)c1=O [Compound 154]
- Nutsedge plant response rating (purple nutsedge; [1]): 0
- Nutsedge plant response rating (purple nutsedge; [2]): 0
- Nutsedge plant response rating (0 to 10 scale) (purple nutsedge; [3]): 0
- Nutsedge plant response rating (purple nutsedge; [4]): 0
- Nutsedge plant response rating (purple nutsedge; [5]): 0
- Nutsedge plant response rating (purple nutsedge; [6]): 0
- Plant response rating, Nutsedge (purple nutsedge; [7]): 0
- Nutsedge plant response rating (purple nutsedge; [8]): 0
- Rice plant response rating (rice; [9]): 0
- Rice plant response rating (rice; [10]): 0
- Plant response rating, Rice (rice; [11]): 0
- Rice plant response rating (rice; [12]): 0
- Plant response rating, Rice (rice; [13]): 0
- Rice plant response rating (rice; [14]): 0
- Rice plant response rating (rice; [15]): 0
- Rice plant response rating (rice; [16]): 0
- Blackgrass plant response rating (blackgrass; [1]): 0
- Blackgrass plant response rating (blackgrass; [2]): 0
- Blackgrass plant response rating (0 to 10 scale) (blackgrass; [3]): 0
- Blackgrass plant response rating (blackgrass; [4]): 3
- Blackgrass plant response rating (blackgrass; [5]): 5
- Blackgrass plant response rating (blackgrass; [6]): 0
- Plant response rating, Blackgrass (blackgrass; [7]): 0
- Blackgrass plant response rating (blackgrass; [8]): 0
- Wheat plant response rating (wheat; [2]): 0
- Wheat plant response rating (0 to 10 scale) (wheat; [3]): 0
- Wheat plant response rating (wheat; [4]): 0
- Wheat plant response rating (wheat; [5]): 0
- Wheat plant response rating (wheat; [6]): 0
- Plant response rating, Wheat (wheat; [7]): 0
- Wheat plant response rating (wheat; [8]): 0
- Morningglory plant response rating (morningglory; [1]): 0
- Morningglory plant response rating (morningglory; [2]): 0
- Morningglory plant response rating (0 to 10 scale) (morningglory; [3]): 0
- Morningglory plant response rating (morningglory; [4]): 0
- Morningglory plant response rating (morningglory; [5]): 0
- Morningglory plant response rating (morningglory; [6]): 0
- Plant response rating, Morningglory (morningglory; [7]): 1
- Morningglory plant response rating (morningglory; [8]): 2
- B. signalgrass plant response rating (surinam grass; [1]): 0
- B. signalgrass plant response rating (surinam grass; [2]): 0
- B. signalgrass plant response rating (0 to 10 scale) (surinam grass; [3]): 0
- B. signalgrass plant response rating (surinam grass; [4]): 0
- B. signalgrass plant response rating (surinam grass; [5]): 4
- B. signalgrass plant response rating (surinam grass; [6]): 0
- Plant response rating, B. signalgrass (surinam grass; [7]): 0
- B. signalgrass plant response rating (surinam grass; Rate 500 g/ha, Postemergence, scale 0 to 10, 0 no effect, 10 complete control): 2
- Rape plant response rating (rape; [1]): 0
- Rape plant response rating (rape; [2]): 0
- Rape plant response rating (0 to 10 scale) (rape; [3]): 0
- Rape plant response rating (rape; [4]): 0
- Rape plant response rating (rape; [5]): 0
- Rape plant response rating (rape; [6]): 0
- Plant response rating, Rape (rape; [7]): 0
- Rape plant response rating (rape; [8]): 0
- Giant foxtail plant response rating (giant foxtail; [1]): 0
- Giant foxtail plant response rating (giant foxtail; [2]): 0
- Giant foxtail plant response rating (0 to 10 scale) (giant foxtail; [3]): 0
- Giant foxtail plant response rating (giant foxtail; [5]): 8
- Giant foxtail plant response rating (giant foxtail; [6]): 0
- Plant response rating, Giant foxtail (giant foxtail; [7]): 1
- Giant foxtail plant response rating (giant foxtail; [8]): 3
- Wild oats plant response rating (wild oat; [2]): 0
- Wild oats plant response rating (0 to 10 scale) (wild oat; [3]): 0
- Wild oats plant response rating (wild oat; [4]): 4
- Wild oats plant response rating (wild oat; [5]): 5
- Wild oats plant response rating (wild oat; [6]): 0
- Plant response rating, Wild oats (wild oat; [7]): 0
- Wild oats plant response rating (wild oat; [8]): 1
- Soybean plant response rating (soybean; [1]): 2
- Soybean plant response rating (soybean; [2]): 0
- Soybean plant response rating (0 to 10 scale) (soybean; [3]): 0
- Soybean plant response rating (soybean; [4]): 0
- Soybean plant response rating (soybean; [5]): 0
- Soybean plant response rating (soybean; [6]): 2
- Plant response rating, Soybean (soybean; [7]): 2
- Soybean plant response rating (soybean; [8]): 3
- Bedstraw plant response rating (bedstraw; [1]): 0
- Bedstraw plant response rating (bedstraw; [2]): 0
- Bedstraw plant response rating (0 to 10 scale) (bedstraw; [3]): 0
- Bedstraw plant response rating (bedstraw; [4]): 0
- Bedstraw plant response rating (bedstraw; [5]): 0
- Bedstraw plant response rating (bedstraw; [6]): 0
- Plant response rating, Bedstraw (bedstraw; [7]): 0
- Velvetleaf plant response rating (velvetleaf; [2]): 0
- Velvetleaf plant response rating (0 to 10 scale) (velvetleaf; [3]): 0
- Velvetleaf plant response rating (velvetleaf; [4]): 0
- Velvetleaf plant response rating (velvetleaf; [5]): 0
- Velvetleaf plant response rating (velvetleaf; [6]): 0
- Plant response rating, Velvetleaf (velvetleaf; [7]): 0
- Velvetleaf plant response rating (velvetleaf; [8]): 0
- Corn plant response rating (corn; [1]): 0
- Corn plant response rating (corn; [2]): 0
- Corn plant response rating (0 to 10 scale) (corn; [3]): 0
- Corn plant response rating (corn; [4]): 0
- Corn plant response rating (corn; [5]): 0
- Corn plant response rating (corn; [6]): 0
- Plant response rating, Corn (corn; [7]): 0
- Corn plant response rating (corn; [8]): 0
- Redroot pigweed plant response rating (pigweed; [1]): 0
- Redroot pigweed plant response rating (pigweed; [2]): 6
- Redroot pigweed plant response rating (0 to 10 scale) (pigweed; [3]): 7
- Redroot pigweed plant response rating (pigweed; [4]): 8
- Redroot pigweed plant response rating (pigweed; [5]): 9
- Redroot pigweed plant response rating (pigweed; [6]): 0
- Plant response rating, Redroot pigweed (pigweed; [7]): 2
- Redroot pigweed plant response rating (pigweed; [8]): 6
- Ducksalad plant response rating (duck salad; [9]): 0
- Ducksalad plant response rating (duck salad; [10]): 0
- Plant response rating, Ducksalad (duck salad; [11]): 0
- Ducksalad plant response rating (duck salad; [12]): 0
- Plant response rating, Ducksalad (duck salad; [13]): 0
- Ducksalad plant response rating (duck salad; [14]): 0
- Ducksalad plant response rating (duck salad; [15]): 0
- Ducksalad plant response rating (duck salad; [16]): 0
- Crabgrass plant response rating (crabgrass; [1]): 0
- Crabgrass plant response rating (crabgrass; [2]): 0
- Crabgrass plant response rating (0 to 10 scale) (crabgrass; [3]): 0
- Crabgrass plant response rating (crabgrass; [4]): 0
- Crabgrass plant response rating (crabgrass; [5]): 0
- Crabgrass plant response rating (crabgrass; [6]): 0
- Plant response rating, Crabgrass (crabgrass; [7]): 1
- Crabgrass plant response rating (crabgrass; [8]): 5
